# Results from US20040171795A1, “Novel peptides” (priority 2000, published 2004).
# Where no end group is shown, it is not given here.
# Assay: Evaluation of toxicity of the peptide, tail vein administration
# Format: in vivo
# Conditions: female BALB/c mouse, 5 mg/kg
# Description: The peptide of the present invention was administered to a mouse from its tail vein to thereby evaluate its toxicity. The mouse used was a female BALB/c mouse of 5 week old, and the peptide was used at a dose of 5 mg/kg.
sequence,measurement,value
LARLLARLLARLLRALLRALLRAL [SEQ ID NO:27],toxicity after tail vein administration,died immediately after the administration
